# Experimental data as given in a melting point compilation (Tetko et al.; mined from patent text by program, amines drawn as free bases though some values may be those of a salt).
row,Structure (SMILES),melting point [°C]
1,CC(C)c1nc(N(C(C)C)C(C)C)c([N+](=O)[O-])c(N(C(C)C)C(C)C)n1,45
2,COC(=O)Cn1c(C(=O)Nc2nc(-c3cc(OC)c(Cl)cc3OC)c(CCC3CCCCC3)s2)c(C)c2cc(C)ccc21,166 to 168
3,CCCN1N=C2C(=Cc3ccccc3C)CSCC2C1c1ccccc1C (centres undefined),110 to 112
4,CC1=Cc2cc(C(=O)O)ccc2OC1(C)C,169 to 171
5,CC(=O)OCCn1nc(C)c(-c2ccc3c(c2)NC(=O)CO3)c1-c1ccc(F)cc1,160
6,"CN(CCO)C(=O)NC(CS)Cc1ccccc1 (single isomer, unassigned; (+))",86
7,O=C(O)c1cccc(-c2cccc(OCCc3cccc(F)c3)n2)c1,142 to 143
8,COc1cc(Nc2c(C#N)cnc3cc(-c4ccc(C=O)o4)ccc23)c(Cl)cc1Cl,> 250
9,O=[N+]([O-])c1ccc(F)c(-c2ccsc2)c1,65
10,CCn1c(=O)ccc2cnc(Nc3ccc(F)cc3)nc21,215 to 217
11,N#Cc1ccc(-c2cn(-c3ccc(C#N)cc3)cn2)cc1,258 to 263
12,O=c1[nH]c2ccccc2c2c(CO)c(CO)nn12,247 to 250
13,CC(C)(C)OC(=O)CCOCCCc1cccc(-c2nc(=O)c3ccccc3s2)n1,71 to 71.9
14,Clc1nc(SCc2ccccc2)nc2nc[nH]c12,176 to 178
15,COc1ccc2c(OC)c(C(C)C)cc(Br)c2c1,108 to 110
16,CC1(C)CCCN(C(=O)c2ccccc2NC(=O)CN2C(=O)c3ccccc3C2=O)C1,158
17,Nc1nc(=O)n(C2OC(CO)CC2F)cc1F (centres undefined),209 to 210
18,CCOc1ccc(C)c(NCc2ccccc2)c1,69 to 71
19,CCOC(=O)c1cc(NCc2c(C)cccc2C)c2nc(C)n(COCc3ccccc3)c2c1,155 to 156
20,Cc1csc(NC(=O)c2ccc(CN3CCN(c4nc(C)cs4)C3=O)cc2)n1,197 to 198
21,CCCOc1ccc(-c2ccc3c(c2)C=C(C(=O)OC)CCS3(=O)=O)cc1,153 to 155
22,COc1cc(OC)nc(C(=O)NS(=O)(=O)CC(C)C)n1,128 to 130
23,CC(C)[C@H](NC1CCCCC1)C(=O)O,> 300

row,Structure (SMILES),melting point [°C]
1,O=S(=O)(c1ccc(Cn2cnnn2)cc1)C1CCN(CCc2ccc(F)cc2F)CC1,168 to 169
2,CCN(C(=O)c1cc(N(C)C)ccc1[Si](C)(C)C)C(OC)C(C)(C)C (centres undefined),96 to 98
3,CC(C)(C)C(=O)CN1CCNC1=N[N+](=O)[O-],158 to 159
4,CC(C)(C)OC(=O)Nc1cc(N2CCC3(CC2)OCCO3)c(-c2ccccc2F)cc1[N+](=O)[O-],164
5,CCN(CC)CC1CCCCN1CCCCN1c2ccccc2C(=O)Nc2cccnc21 (centres undefined),112
6,CC(=O)N[C@@H]1CN2C(=O)N(c3cc(Cl)cc(Cl)c3)C(=O)[C@@]2(Cc2ccc(Br)cc2)C1,141
7,C#CCOc1nc(N)c(C(F)(F)F)cc1Cl,56 to 58
8,COC(=O)C(=CNc1ccc(F)cc1)C(=O)C=Cc1ccc(NC(C)=O)cc1,161 to 164
9,CC1CCCC(C)N1Cc1ccc2cc(NC(=O)c3ccc(-c4ccc(F)cc4)cc3)ccc2n1 (centres undefined),187 to 188
10,O=C(C=C(c1cc(Cl)cc(Cl)c1)C(F)(F)F)c1ccc(C(=O)NC2CCCO2)cc1 (centres undefined),140 to 146
11,CC1CC(=O)NN=C1c1ccc2c(c1)NCCO2 (centres undefined),166 to 168
12,COc1ccc(CCNC[C@H](O)COc2ccc(-c3nc(C(C)=O)c[nH]3)cc2)cc1OC,138 to 142
13,CC(C)(C)c1cc(C=Cc2ccccc2O)on1,152 to 155
14,CCOC(=O)C=Cc1cccc(I)c1,36.3
15,Cc1noc2cc3c(cc12)C1(CO3)C(=O)N(Cc2ncccc2C(F)(F)F)c2ccccc21 (centres undefined),221 to 222
16,COC(=O)C(O)C(NCc1ccccc1)c1ccc(Cl)cc1 (centres undefined),106 to 108
17,c1ccc(-c2ccc(NCc3nccc(-c4ccc(-c5ccc(N(c6ccccc6)c6ccccc6)cc5)cc4)n3)cc2)cc1,224 to 225
18,CC(=O)N[C@@H](C)C(=O)NCCc1ccc(O)c(O)c1,200 to 202
19,CCCCc1ncc(/C=C2\C(=O)NC(=O)N2CCC(C)C)n1Cc1ccc(C(=O)O)cc1,143 to 146
20,CC(C)(C)C(=O)c1c[nH]c2ncc(-c3cccc(NC4=NCCN4)c3)nc12,228 to 230
21,CS(=O)(=O)c1ccc(-c2cnn(-c3ccc(F)c(Cl)c3)c(=O)c2Cc2ccc(F)cc2)cc1,153 to 156
22,NS(=O)(=O)CCCNc1nc(Cl)ncc1Cl,186 to 187
23,Fc1ccc2c(C3CCN(CCc4ccccc4)CC3)n[nH]c2c1,163 to 165

row,Structure (SMILES),melting point [°C]
1,CC(=O)OC1CC2C3CCC(C(C)CCCC(C)C)C3(C)CCC2C2(C)CC(F)C(=O)CC12 (centres undefined),153 to 156
2,COC(=O)CCCCCOc1ccc(NC(=O)CCCCCOCc2ccccc2)cc1,64 to 65.6
3,O=[N+]([O-])c1ccc(-c2nc(-c3ccc([N+](=O)[O-])cc3)c(-c3ccc([N+](=O)[O-])cc3)[nH]2)cc1,320 to 322
4,CCOC(=O)Cc1sc(S)nc1-c1ccc(Cl)cc1,176 to 178
5,O=C(O)CCCCCCCCn1nc(-c2ccccc2)c(-c2ccccc2)cc1=O,100 to 103
6,O=C(CCCCNCCOc1cccc2cccnc12)NC1CCCCC1,113 to 119
7,COc1ccc(C(=O)NC(=O)NC2CN3CCC2CC3)cc1 (centres undefined),166 to 168
8,O=C(O)c1ccc(COc2ccc3cc(-c4ccc(-c5ccccc5)n4Cc4ccc(C(F)(F)F)cc4)ccc3c2)c(C(=O)O)c1,250 to 252
9,Cc1ccc2c(-c3ccoc3)cc(=O)oc2c1,160 to 162
10,CCCCCCC(=O)Nc1cccc2c1C(=O)c1ccccc1C2=O,133
11,CCC(CC)Nc1ncnc2c1ncn2C,107 to 109
12,COC(=O)C(C)(C)Sc1cccc(OC(=O)Nc2ccc(C(F)(F)F)cc2)c1,66 to 67
13,NC(=O)c1cnn2c(-c3cccc(C(F)(F)F)c3)ccnc12,256 to 258
14,CON=C(c1noc(C)n1)c1ccccc1COc1ccc(Cl)cc1,125 to 126
15,COc1ccccc1Oc1c(Cl)nc(-c2cccnn2)nc1NS(=O)(=O)CCc1cccc2ccccc12,192
16,CCOC(=O)c1cn(-c2ccc(F)cc2)c2cc(-c3ccncc3)ccc2c1=O,252 to 253
17,O=C1C=C(O)C(=O)c2cc(F)ccc21,206 to 210
18,CCCn1c(=O)c2c(nc(/C=C/c3ccc(OC)c4ccccc34)n2C)n(CCC)c1=O,213 to 214
19,COc1ccc(S(=O)(=O)C(CCCCOc2ccccc2)(Cc2cccnc2)C(=O)NO)cc1 (centres undefined),68
20,O=C(c1ccc(-c2cnc3c(c2)N(Cc2ccccc2)CCN3)cc1)N1CCC(N2CCCC2)CC1,120
21,COCN(C(=O)CCl)c1c([N+](=O)[O-])cccc1[N+](=O)[O-],106 to 108
22,COC(=O)c1ccc(S(C)(=O)=O)c(C=O)c1C,108 to 110
23,COc1c(OCCCC(=O)O)ccc2c1N=C(C=C(O)c1cccnc1)N1CCN=C21,257 to 258
